Results from patent US20150259371A1, “METHODS AND COMPOUNDS FOR INHIBITING GLYCOSYLTRANSFERASES” (SIMON FRASER UNIVERSITY, priority 2010, published 2015).
Entries after “also recorded” stand apart in the source; their conditions may differ.

Legend:
[1] = system: O-GlcNAc levels in COS-7 cells; test: Western blot of O-GlcNAc levels (CTD110.6) in treated COS-7 cells; format: cell-based, African green monkey
Procedure: Cell culture: Cells were grown in an incubator at 37° C. and 5% CO2 atmosphere. Media and serum were purchased from Invitrogen. COS-7 cells were cultured in Dulbecco's modified Eagle's medium (DMEM) with 5% fetal bovine serum (FBS), and were typically 80-100% confluent prior to experimentation. HepG2, SK-N-SH, and EMEG32^−/− cells were cultured in Dulbecco's modified Eagle's medium (DMEM) with 5% fetal bovine serum (FBS), CHO cells in DMEMF-12 with 5% FBS and PC12 cells in DMEM with 5% FBS and 5% horse serum. Prior to experimentation, PC12 cells were plated at a density of 3-4×10^5 cells10 cm plate, which had been pre-treated with 5 μgcm^2 rat tail collagen (BD Biosciences). Cells were differentiated in DMEM containing 1% horse serum, in the presence of 2.5S mouse nerve growth factor (Chemicon) at a final concentration of 25 ng mL^−1, for 4-5 days prior to treatment. Other cell lines were 80-100% confluent prior to treatment. Following treatment with (Ac-)5SGlcNAc, using various conditions, cells were washed gently with PBS, lysed in SDS loading buffer and boiled for 10 minutes. Mouse hybridoma cells (obtained from the Developmental Studies Hybridoma Bank; antibody E7 for (:1-tubulin) were cultured in RPMI40 with 10% FBS. Prior to treatment with Ac-5SGlcNAc, hybridoma cells were cultured for 2 days in RPMI40 with 5% FBS, and during treatment in RPMI40 with no serum. Cells were collected, centrifuged (800 x g, 5 min) and the supernatant removed. Cells were washed with PBS, centrifuged, the pellet resuspended in SDS loading buffer and boiled. The supernatant after centrifugation, which contained the IgG antibody produced by the cells, was used for immunoprecipitation (see below for details).
Westernlectin blots: Samples were run on 10% SDS polyacrylamide gels and transferred onto nitrocellulose membranes (Biorad). Membranes were blocked for 1 h in PBS containing 0.1% Tween-20 (PBS-T) containing 1% (unless otherwise stated) bovine serum albumin (BSA), and probed with the appropriate primary antibody or lectin in 1% BSA in PBS-T overnight at 4° C. Blots were washed for 1 hr with PBS-T, and blocked for a further 30 min with 1% BSA in PBS-T at room temperature. They were then probed with the appropriate horseradish peroxidise (HRP)-conjugated secondary antibodyprobe in 1% BSA in PBS-T at room temperature for 1 h, followed by washing in PBS-T for 1 h. Blots were developed with SuperSignal West Pico Chemiluminescent Substrate (Pierce) and exposed to CL-XPosure film (Pierce). Densitometry was performed using ImageQuant 5.2 (Molecular Dynamics), and fits to the data were made using GRAFIT^41.
Antibodieslectins: O-GlcNAc levels were assessed primarily using CTD110.6 (Covance), but RL2 (Abcam) and HGAC85 (Abcam) were also tested. Actin was probed using JLA20 (Developmental Studies Hybridoma Bank). OGA levels were assessed using a polyclonal anti-OGA antibody which was a kind gift from Dr. Gerald Hart and OGT levels using H-300 (Santa Cruz Biotechnology). nup62 was probed using mAb 414 (Covance). Secondary antibodies employed (HRP-conjugated goat anti-mouse IgM, goat anti-mouse IgG, goat anti-chicken IgY and goat anti-rabbit IgG) were obtained from Santa Cruz Biotechnology. Biotinylated-ConA, PHA-L, SNA and MAA were purchased from EY Laboratories, and biotinylated-GNA from Vector Laboratories. HRP-conjugated streptavidin (Pierce) was used as a probe for the biotinylated lectins.
Analogues (9, 10, 17-41) were tested in COS-7 cells, dosed at a final concentration of 50 μM in DMSO for 24 h. Following treatment, cells were washed with PBS, harvested into SDS-PAGE loading buffer and analyzed by western blot using standard procedures; blots were probed with the anti-O-GlcNAc antibody (CTD 110.6).

Primary CLL cells = test: Primary CLL cells, proliferation and toxicity with or without cytokine stimulation; format: cell-based; settings: 5 days
Procedure: Primary CLL cells, obtained from Dr. David Spaner at the University of Toronto, were tested for their response to Ac-5SGlcNAc (9). Cells were plated at a confluency of 1 million cells/mL, and treated with between 0-250 μM 9, in the presence or absence of cytokine (1000 U/mL IL-2 and 1 μg/mL Resiquimod) stimulation to mimic cancer progression. Cells were observed over the course of 5 days, and harvested after this time into SDS-PAGE loading buffer before being subjected to western blotting.

O-GlcNAc on nup62 = O-GlcNAc on nup62 immunoprecipitated from treated cells, chemoenzymatic labelling; format: cell-based; settings: 250 μM, 24 h; streptavidin probe
Procedure: Immunoprecipitation of nup62: nup62 was immunoprecipitated from COS-7 cell lysates using the procedure described in Ref.^9. Following washing of the beads, and prior to elution, nup62 was incubated in the absence or presence of BtGH84 (overexpressed and purified as described previously^43) shaking for 2 h at room temperature, which would allow O-GlcNAc levels on nup62 to be assessed. nup62 was subsequently eluted from the beads upon addition of SDS loading buffer and boiled for 10 min.
Click-iT® kit for labelling O-GlcNAc residues: The ‘Click-iT® O-GlcNAc Enzymatic Labeling System’ was purchased from Invitrogen, and essentially the manufacturer's protocol was followed with some alterations. nup62 was immunoprecipitated and eluted from the beads in 1% SDS in 20 mM Hepes, pH 7.9, and boiled for 10 min; this was used as the substrate for the chemoenzymatic labeling using UDP-GalNAz and GalTl. Following the overnight reaction, biotinylated phosphine (in 20% DMF) was added at a final concentration of 50 μM and incubated at 37° C. for […]. The reaction was stopped by the addition of SDS-PAGE loading buffer, and the samples were boiled for 10 min. Samples were run on a gel and transferred. The same procedure as described for the western blots was used, starting from the second blocking step. Blots were then probed with HRP-conjugated streptavidin (Pierce). […]

CC(=O)NC1C(OC(C)=O)SC(COC(C)=O)C(OC(C)=O)C1OC(C)=O [Compound 9, N-Acetyl-1,3,4,6-tetra-O-acetyl-α-D-5-thio-glucosamine]
O-GlcNAc levels on dosing for 5 days ([1]; 50 μM, 5 days): O-GlcNAc levels dropped in the first day and remained low | O-GlcNAc levels, time course ([1]; 50 μM, hours, listed as Ac-5SGlcNAc): almost no O-GlcNAc being detectable after 24 hours; also recorded: O-GlcNAc levels diminish to a low level by 24 h | effect on O-GlcNAc levels, dose response ([1]; 24 hours): decreased O-GlcNAc levels in a dose-dependent fashion | EC50 ([1]; Chlorocebus sabaeus, 24 h, densitometry of western blot, read-out: EC50 for reduction of O-GlcNAc levels): 5 µM | time for O-GlcNAc to return to basal levels after change to media without compound ([1]; after 50 μM for 24 h): ≤ 24 h | toxicity to cells (Primary CLL cells; 0-250 μM, unstimulated or stimulated): not toxic to either unstimulated or stimulated cells | proliferation of cytokine-stimulated cells (Primary CLL cells; 50 μM and higher, IL-2 and Resiquimod stimulation): the proliferation that was obvious in untreated stimulated cells was absent | O-GlcNAc modification of immunoprecipitated nup62 (O-GlcNAc on nup62): shows almost no modification
